{"source": "patent US6444669B1", "about": "“8,8A-DIHYDROINDENO[1,2-D]THIAZOLE DERIVATIVES WHICH CARRY IN THE 2-POSITION A SUBSTITUENT HAVING A SULFONAMIDE STRUCTURE OR SULFONE STRUCTURE; PROCESSES FOR THEIR PREPARATION AND THEIR USE AS MEDICAMENTS” (Aventis Pharma Deutschland GmbH, priority 2000, dated 2002)", "key": {"[1]": {"test_system": "male or female NMRI mice", "experiment": "Anorectic action: cumulated evaporated milk consumption after 24 h feed withdrawal", "format": "in vivo", "procedure": "The anorectic action was tested on male or female NMRI mice. After withdrawal of feed for 24 hours, the test preparation was administered via a stomach tube. Kept individually and with free access to drinking water, the animals were offered evaporated milk 30 minutes after the administration of the preparation. The consumption of evaporated milk was determined half-hourly for 3 hours and the general condition of the animals was observed. The measured milk consumption was compared with that of untreated control animals."}}, "data": [{"smiles": "NS(=O)(=O)c1ccc(C2=NC3(O)c4ccc(Cl)cc4CC3S2)cc1", "note": "(stereo not drawn) [Example 5, 4-(6-Chloro-3a-hydroxy-8,8a-dihydro-3aH-indeno[1,2-d]thiazol-2-yl)benzenesulfonamide]", "values": [{"measurement": "Reduction of the cumulated milk consumption in % of the control", "setting": "[1]; male animals, oral dose 50 mg/kg, compared with untreated control animals", "result": 95, "unit": "%"}, {"measurement": "cumulated milk consumption of the treated animals", "setting": "[1]; oral dose 50 mg/kg via stomach tube, N=5, milk consumption determined half-hourly for 3 hours", "result": "5/0.08 ml"}, {"measurement": "melting point", "result": 160, "unit": "°C"}]}]}
